From PMC12959773 (Protein & Cell, 2025) come the findings set out here.

The target of assay [1] is T1, SLC7A13-SLC3A1 complex (Homo sapiens, UniProt Q8TCU3, C223A).
T1 construct: heterodimeric light/heavy chain transporter, dimer of heterodimers; ectopically expressed in HEK293T / HEK293 cells (Expi293 for cryo-EM); with Amino acid transporter heavy chain SLC3A1
T1 sequence (Q8TCU3 1-470 C223A): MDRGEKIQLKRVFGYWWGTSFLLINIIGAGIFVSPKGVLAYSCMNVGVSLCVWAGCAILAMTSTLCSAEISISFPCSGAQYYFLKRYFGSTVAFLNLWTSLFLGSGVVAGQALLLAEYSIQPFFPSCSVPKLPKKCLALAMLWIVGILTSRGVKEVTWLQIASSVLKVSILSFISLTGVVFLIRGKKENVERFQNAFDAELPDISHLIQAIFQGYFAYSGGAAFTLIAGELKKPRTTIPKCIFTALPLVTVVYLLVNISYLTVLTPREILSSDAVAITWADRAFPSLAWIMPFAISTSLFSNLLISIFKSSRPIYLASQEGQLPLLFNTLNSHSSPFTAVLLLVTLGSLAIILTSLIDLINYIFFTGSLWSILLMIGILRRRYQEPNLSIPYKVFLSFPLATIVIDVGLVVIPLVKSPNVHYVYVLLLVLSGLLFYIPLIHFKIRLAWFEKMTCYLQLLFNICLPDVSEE
T1 sequence (Q07837 1-685 partner): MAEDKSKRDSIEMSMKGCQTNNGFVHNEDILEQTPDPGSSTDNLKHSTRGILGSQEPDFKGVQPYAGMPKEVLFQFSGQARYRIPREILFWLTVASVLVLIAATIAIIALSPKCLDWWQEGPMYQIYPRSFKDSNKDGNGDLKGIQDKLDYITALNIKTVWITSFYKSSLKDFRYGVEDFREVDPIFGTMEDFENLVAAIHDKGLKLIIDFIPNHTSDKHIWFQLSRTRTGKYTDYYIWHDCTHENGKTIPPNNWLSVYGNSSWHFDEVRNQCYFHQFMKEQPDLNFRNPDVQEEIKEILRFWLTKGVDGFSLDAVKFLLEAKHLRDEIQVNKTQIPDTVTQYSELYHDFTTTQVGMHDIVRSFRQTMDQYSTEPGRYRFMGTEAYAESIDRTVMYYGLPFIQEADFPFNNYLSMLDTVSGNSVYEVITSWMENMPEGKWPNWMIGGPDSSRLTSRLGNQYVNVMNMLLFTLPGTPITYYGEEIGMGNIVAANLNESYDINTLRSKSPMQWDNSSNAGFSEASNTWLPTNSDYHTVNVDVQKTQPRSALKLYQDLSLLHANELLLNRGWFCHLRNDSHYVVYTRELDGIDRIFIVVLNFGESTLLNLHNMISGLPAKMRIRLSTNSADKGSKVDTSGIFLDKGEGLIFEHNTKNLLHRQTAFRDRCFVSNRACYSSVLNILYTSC
The assay is described as follows: [2H]-cystine uptake, isotope tracking. Particulars: HEK293 cells transfected with SLC7A13 and SLC3A1; labelled compound. The assay is classed as cell-based.

Assay [2] has as its target T2, SLC7A13-SLC3A1 complex (Homo sapiens, UniProt Q8TCU3).
T2 construct: heterodimeric light/heavy chain transporter, dimer of heterodimers; ectopically expressed in HEK293T / HEK293 cells (Expi293 for cryo-EM); with Amino acid transporter heavy chain SLC3A1
T2 sequence (Q8TCU3 1-470): T1 sequence (Q8TCU3 1-470 C223A) with A223C
T2 sequence (Q07837 1-685 partner): T1 sequence (Q07837 1-685 partner)
In words: microscale thermophoresis. The following applies: read-out: binding affinity.

Assay [3] concerns the target T3, SLC7A13-SLC3A1 complex (Homo sapiens, UniProt Q8TCU3, S219A).
T3 construct: heterodimeric light/heavy chain transporter, dimer of heterodimers; ectopically expressed in HEK293T / HEK293 cells (Expi293 for cryo-EM); with Amino acid transporter heavy chain SLC3A1
T3 sequence (Q8TCU3 1-470 S219A): T1 sequence (Q8TCU3 1-470 C223A) with S219A, A223C
T3 sequence (Q07837 1-685 partner): T1 sequence (Q07837 1-685 partner)
In words: [2H]-cystine uptake, isotope tracking. Type of assay: cell-based. The following applies: HEK293 cells transfected with SLC7A13 and SLC3A1; labelled compound.

Molecules are shown by their SMILES. Residue numbers refer to the chain shown, from its start.

As for `N[C@@H](CSSC[C@H](N)C(=O)O)C(=O)O` [cystine], the cystine uptake result in assay [1] and in assay [3] was “mutation in any of the seven SLC7A13-specific residues to alanine significantly reduced SLC7A13’s transporter activities” each time. Besides, the Kd in assay [2] amounted to 112 ± 44 µM.
